From patent US20250215029A1 (Recludix Pharma, Inc., priority 2022, published 2025)
Where two headings read alike, the source gives them in different places.

Tests used:
[1] = biological target: T1, Recombinant STAT6 protein (STAT6 (W123-T658)) (Homo sapiens, UniProt P42226); experiment: STAT6 Fluorescence Polarization (FP) Assay; format: binding; conditions: probe 5-FAM-Ap[…]-NH2 2 nM, 45-minute incubation
T1 construct: Recombinant STAT6 protein (STAT6 (W123-T658))
T1 sequence (P42226 123-658): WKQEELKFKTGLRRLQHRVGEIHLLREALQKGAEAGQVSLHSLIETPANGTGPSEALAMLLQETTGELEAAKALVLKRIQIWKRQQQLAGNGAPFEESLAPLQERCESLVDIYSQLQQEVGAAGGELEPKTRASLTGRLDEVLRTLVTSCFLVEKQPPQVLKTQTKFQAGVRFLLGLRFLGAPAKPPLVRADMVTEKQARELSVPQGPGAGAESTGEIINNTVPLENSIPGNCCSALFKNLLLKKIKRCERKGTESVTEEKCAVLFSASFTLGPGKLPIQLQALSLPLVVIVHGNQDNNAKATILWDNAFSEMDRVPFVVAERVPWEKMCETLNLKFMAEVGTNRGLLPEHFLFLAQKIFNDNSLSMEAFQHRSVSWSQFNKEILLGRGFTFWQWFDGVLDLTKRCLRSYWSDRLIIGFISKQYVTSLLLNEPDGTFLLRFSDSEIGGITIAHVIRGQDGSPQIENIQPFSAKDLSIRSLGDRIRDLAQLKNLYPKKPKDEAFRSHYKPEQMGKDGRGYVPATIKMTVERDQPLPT
How it was run: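 Serially diluted compounds received a premix of STAT6 (W123-T658, 250 nM) and 5-FAM peptide probe (2 nM) in pH 7.4 HEPES buffer containing DTT and Tween 20. Following 45 min at room temperature, FP was recorded. IC50s were fitted by nonlinear regression; values are binned A (≤300 nM), B (>300-3000 nM), C (>3-30 μM), D (>30 μM).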

[2] = biological target: T2, Recombinant STAT3 protein (STAT3 (G127-I722)) (Homo sapiens, UniProt P40763); experiment: STAT3 Fluorescence Polarization (FP) Assay; format: binding; conditions: probe 5-FAM-GpYLPQTV-NH2 2 nM, 45-minute incubation
T2 construct: Recombinant STAT3 protein (STAT3 (G127-I722))
How it was run: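 Displacement of a fluorescent phosphotyrosine peptide (5-FAM-GpYLPQTV-NH2, 2 nM) from 25 nM recombinant STAT3 G127-I722 was monitored by FP after 45 min at room temperature.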

[3] = STAT6 (W123-T658) 250 nM, read-out: STAT6 (FP assay IC50 class)
[4] = STAT3 (G127-I722) 25 nM, read-out: STAT3 (FP assay IC50 class)
[5] = STAT6 250 nM, read-out: STAT6 (FP assay IC50)
[6] = STAT3 25 nM, read-out: STAT3 (FP assay IC50)

T2 sequence (P40763 127-722): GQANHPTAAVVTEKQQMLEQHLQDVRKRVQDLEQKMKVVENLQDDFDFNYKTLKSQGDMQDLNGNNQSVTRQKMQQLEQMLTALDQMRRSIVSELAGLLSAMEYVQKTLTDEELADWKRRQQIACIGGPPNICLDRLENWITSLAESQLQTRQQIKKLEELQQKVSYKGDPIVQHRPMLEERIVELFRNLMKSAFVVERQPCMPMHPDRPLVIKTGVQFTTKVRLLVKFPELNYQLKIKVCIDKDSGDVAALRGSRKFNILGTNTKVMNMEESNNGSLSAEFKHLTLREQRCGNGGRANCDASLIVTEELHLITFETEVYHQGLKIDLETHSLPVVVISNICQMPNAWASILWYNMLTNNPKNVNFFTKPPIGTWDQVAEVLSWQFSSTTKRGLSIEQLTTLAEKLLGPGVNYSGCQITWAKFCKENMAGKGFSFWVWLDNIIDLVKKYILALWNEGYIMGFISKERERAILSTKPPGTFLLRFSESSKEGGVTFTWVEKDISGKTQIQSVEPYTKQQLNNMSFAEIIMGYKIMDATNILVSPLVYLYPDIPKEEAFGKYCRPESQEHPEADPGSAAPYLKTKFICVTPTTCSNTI

SMILES | IC50 [1, 3] | IC50 [2, 4] | IC50 [1, 5] | IC50 [2, 6]
O=C(N[C@H]1CCCC[C@H]2CC[C@@H](C(=O)N3CCC(c4ncncc4F)CC3)N2C1=O)c1cc2cc(C(F)P(=O)(O)O)ccc2s1 (stereo partly drawn) [Compound 588, (fluoro(2-(((3S,6S,10aS)-3-(4-(5-fluoropyrimidin-4-yl)piperidine-1-carbonyl)-5-oxodecahydropyrrolo[1,2-a]azocin-6-yl)carbamoyl)benzo[b]thiophen-5-yl)methyl)phosphonic acid] | 3 to 30 µM | 1 to 10 µM | – | –
Cc1nccc(F)c1C1CN(C(=O)[C@@H]2CC[C@@H]3CCC[C@H](NC(=O)c4cc5cc(CP(=O)(O)O)ccc5s4)C(=O)N32)C1 [Compound 580, ((2-(((3S,6S,9aS)-3-(3-(4-fluoro-2-methylpyridin-3-yl)azetidine-1-carbonyl)-5-oxooctahydro-1H-pyrrolo[1,2-a]azepin-6-yl)carbamoyl)benzo[b]thiophen-5-yl)methyl)phosphonic acid] | 3 to 30 µM | 1 to 10 µM | – | –
O=C(N[C@H]1CCCC[C@H]2CC[C@@H](C(=O)N3C[C@H](c4cc[nH]c(=O)c4)CC34CC4)N2C1=O)c1ccc2ccc(CP(=O)(O)O)cc2c1 [Compound 882, ((7-(((3S,6S,10aS)-5-oxo-3-((S)-6-(2-oxo-1,2-dihydropyridin-4-yl)-4-azaspiro[2.4]heptane-4-carbonyl)decahydropyrrolo[1,2-a]azocin-6-yl)carbamoyl)naphthalen-2-yl)methyl) phosphonic acid] | 0.3 to 3 µM | 1 to 10 µM | – | –
O=C(N[C@H]1C[C@@H](O)CC[C@H]2CC[C@@H](C(=O)N3CC(C(=O)N4CCOCC4)C3)N2C1=O)c1cc2cc(C(F)(F)P(=O)(O)O)ccc2s1 [Compound 4, (difluoro(2-(((3S,6S,8S,10aR)-8-hydroxy-3-(3-(morpholine-4-carbonyl)azetidine-1-carbonyl)-5-oxodecahydropyrrolo [1,2-a]azocin-6-yl)carbamoyl)benzo[b]thiophen-5-yl)methyl) phosphonic acid] | – | – | 3 to 30 µM | 0.1 to 1 µM
O=C(N[C@H]1CCC[C@H]2CC[C@@H](C(=O)N3CC(c4cncnc4N4CCC4)C3)N2C1=O)c1cc2cc([C@@H](F)P(=O)(O)O)ccc2s1 (single isomer, unassigned) [Compound 690] | 3 to 30 µM | < 0.1 µM | – | –
O=C(N[C@H]1CCC[C@H]2CC[C@@H](C(=O)N3CC(c4cncnc4N4CCC4)C3)N2C1=O)c1cc2cc(CP(=O)(O)O)ccc2s1 [Compound 681, ((2-(((3S,6S,9aS)-3-(3-(4-(azetidin-1-yl)pyrimidin-5-yl)azetidine-1-carbonyl)-5-oxooctahydro-1H-pyrrolo[1,2-a]azepin-6-yl)carbamoyl)benzo [b]thiophen-5-yl)methyl) phosphonic acid] | 3 to 30 µM | < 0.1 µM | – | –
CO[C@H]1CC[C@@H](NC(=O)[C@@H]2CC[C@@H]3CCC[C@H](NC(=O)c4cc5cc(C(F)P(=O)(O)O)ccc5s4)C(=O)N32)C1 (stereo partly drawn) [Compound 535, (fluoro(2-(((3S,6S,9aS)-3-(((1R,3S)-3-methoxycyclopentyl)carbamoyl)-5-oxooctahydro-1H-pyrrolo[1,2-a]azepin-6-yl)carbamoyl)benzo[b]thiophen-5-yl)methyl)phosphonic acid] | 3 to 30 µM | 1 to 10 µM | – | –
O=C(N[C@H]1CCC[C@H]2CC[C@@H](C(=O)N[C@@H]3CC[C@@H](O)C3)N2C1=O)c1cc2cc(C(F)P(=O)(O)O)ccc2s1 (stereo partly drawn) [Compound 537, (fluoro(2-(((3S,6S,9aS)-3-(((1R,3R)-3-hydroxycyclopentyl)carbamoyl)-5-oxooctahydro-1H-pyrrolo[1,2-a]azepin-6-yl)carbamoyl)benzo[b]thiophen-5-yl)methyl)phosphonic acid] | 3 to 30 µM | 1 to 10 µM | – | –
N#C[C@@H]1CN(C(=O)[C@@H]2CC[C@@H]3CCCC[C@H](NC(=O)c4ccc5ccc(C(F)(F)P(=O)(O)O)cc5c4)C(=O)N32)C[C@H]1c1cc[nH]c(=O)c1 (relative stereo) [Compound 83, ((7-(((3S,6S,10aS)-3-(rel-(trans)-3-cyano-4-(2-oxo-1,2-dihydropyridin-4-yl)pyrrolidine-1-carbonyl)-5-oxodecahydropyrrolo [1,2-a]azocin-6-yl)carbamoyl)naphthalen-2-yl)difluoromethyl) phosphonic acid] | – | – | ≤ 0.3 µM | 0.1 to 1 µM
O=C(N[C@H]1CCC[C@H]2CC[C@@H](C(=O)N3CC(c4cc5cccnc5cc4F)C3)N2C1=O)c1cc2cc(C(F)P(=O)(O)O)ccc2s1 (stereo partly drawn) [Compound 560, (fluoro(2-(((3S,6S,9aS)-3-(3-(7-fluoroquinolin-6-yl)azetidine-1-carbonyl)-5-oxooctahydro-1H-pyrrolo[1,2-a]azepin-6-yl)carbamoyl)benzo[b]thiophen-5-yl)methyl)phosphonic acid] | 3 to 30 µM | 1 to 10 µM | – | –
N#C[C@@H]1[C@@H](c2ccccc2)CN(C(=O)[C@@H]2CC[C@@H]3C[C@@H](N4CCC4)CC[C@H](NC(=O)c4cc5cc([C@@H](F)P(=O)(O)O)ccc5s4)C(=O)N32)C12CC2 (single isomer, unassigned) [Compound 935] | ≤ 0.3 µM | 1 to 10 µM | – | –
CN(C)c1ncncc1C1CN(C(=O)[C@@H]2CC[C@@H]3CCC[C@H](NC(=O)c4cc5cc(CP(=O)(O)O)ccc5s4)C(=O)N32)C1 [Compound 863, ((2-(((3S,6S,9aS)-3-(3-(4-(dimethylamino)pyrimidin-5-yl)azetidine-1-carbonyl)-5-oxooctahydro-1H-pyrrolo[1,2-a]azepin-6-yl)carbamoyl)benzo [b]thiophen-5-yl)methyl) phosphonic acid] | 3 to 30 µM | < 0.1 µM | – | –
O=C(N[C@H]1CCCC[C@H]2CC[C@@H](C(=O)N3CC4(CNS(=O)(=O)C4)C3)N2C1=O)c1cc2cc(C(F)(F)P(=O)(O)O)ccc2s1 [Compound 71, ((2-(((3S,6S,10aS)-3-(6,6-dioxido-6-thia-2,7-diazaspiro[3.4]octane-2-carbonyl)-5-oxodecahydropyrrolo [1,2-a]azocin-6-yl)carbamoyl)benzo[b]thiophen-5-yl)difluoromethyl) phosphonic acid] | – | – | 0.3 to 3 µM | 0.1 to 1 µM
CN(Cc1cc(=O)[nH]c2ccccc12)C(=O)[C@@H]1CC[C@@H]2CCCC[C@H](NC(=O)c3cc4cc(C(F)(F)P(=O)(O)O)ccc4s3)C(=O)N21 [Compound 795, (difluoro(2-(((3S,6S,10aS)-3-(methyl((2-oxo-1,2-dihydroquinolin-4-yl)methyl)carbamoyl)-5-oxodecahydropyrrolo [1,2-a]azocin-6-yl)carbamoyl)benzo [b]thiophen-5-yl)methyl) phosphonic acid] | 0.3 to 3 µM | 0.1 to 1 µM | – | –
O=C(N[C@H]1CCC[C@H]2CCC[C@@H](C(=O)N3CC(n4ccnc4)C3)N2C1=O)c1cc2cc(C(F)(F)P(=O)(O)O)ccc2s1 [Compound 60, ((2-(((4S,7S,10aS)-4-(3-(1H-imidazol-1-yl)azetidine-1-carbonyl)-6-oxodecahydropyrido [1,2-a]azepin-7-yl)carbamoyl)benzo[b]thiophen-5-yl)difluoromethyl) phosphonic acid] | – | – | 3 to 30 µM | < 0.1 µM
